The text below walks through data of ChEMBL document CHEMBL1143305, “SAR and biological evaluation of analogues of a small molecule histone deacetylase inhibitor N-(2-aminophenyl)-4-((4-(pyridin-3-yl)pyrimidin-2-ylamino)methyl)benzamide (MGCD0103)” (Bioorg Med Chem Lett, 2009).

≈ marks a conversion by molar mass, not a printed value.

A short description of data set [1]: Solubility at pH 6.8. The class given is physicochemical. Particulars: buffer.
Data set [2] is described as follows: Antitumor activity against human AZ-521 cells xenografted in mouse at 5 mg/kg, po administered once daily for 12 days relative to control. The class given is functional. A general note: In xenograft studies the graft and the host belong to different species.
The test system of data set [3] is NCI-H460. Nature of the data set: Antitumor activity against human H460 cells xenografted in mouse at 20 mg/kg, po administered once daily for 12 days relative to control. The class given is functional.
Data set [4] relates to HMEC. Nature of the data set: Antiproliferative activity against HMEC by MTT assay. Particulars: Homo sapiens. The data set is classed as cell-based. In general terms: Tetrazolium dyes change colour on reduction, which living cells bring about.
Data set [5] deals with T1, Histone deacetylase 7 (Homo sapiens, UniProt Q8WUI4).
T1 sequence (Q8WUI4 whole entry): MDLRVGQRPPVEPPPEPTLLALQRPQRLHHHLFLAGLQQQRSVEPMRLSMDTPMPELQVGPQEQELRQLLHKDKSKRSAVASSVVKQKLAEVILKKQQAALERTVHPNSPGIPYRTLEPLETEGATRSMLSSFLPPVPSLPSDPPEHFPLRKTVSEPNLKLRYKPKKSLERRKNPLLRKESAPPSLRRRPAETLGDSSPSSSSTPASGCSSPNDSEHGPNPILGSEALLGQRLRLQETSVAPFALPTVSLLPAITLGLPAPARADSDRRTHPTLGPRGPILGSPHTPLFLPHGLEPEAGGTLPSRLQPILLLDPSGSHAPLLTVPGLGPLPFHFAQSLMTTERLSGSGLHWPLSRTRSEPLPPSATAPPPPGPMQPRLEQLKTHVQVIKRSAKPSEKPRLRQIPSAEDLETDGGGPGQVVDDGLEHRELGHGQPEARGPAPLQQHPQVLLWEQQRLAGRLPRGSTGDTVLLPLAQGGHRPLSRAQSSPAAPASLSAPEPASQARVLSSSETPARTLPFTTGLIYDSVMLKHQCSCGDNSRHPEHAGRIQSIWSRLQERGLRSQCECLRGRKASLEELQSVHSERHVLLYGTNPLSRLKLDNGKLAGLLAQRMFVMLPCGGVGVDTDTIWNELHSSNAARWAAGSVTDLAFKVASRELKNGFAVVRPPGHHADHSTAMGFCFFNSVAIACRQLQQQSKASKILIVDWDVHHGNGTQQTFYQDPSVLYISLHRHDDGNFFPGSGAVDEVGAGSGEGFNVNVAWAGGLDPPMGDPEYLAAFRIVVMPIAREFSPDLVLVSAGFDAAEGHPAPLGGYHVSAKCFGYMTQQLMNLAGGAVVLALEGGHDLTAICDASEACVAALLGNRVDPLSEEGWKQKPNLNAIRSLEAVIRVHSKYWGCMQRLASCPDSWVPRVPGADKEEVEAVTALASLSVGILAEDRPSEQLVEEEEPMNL
Nature of the data set: Inhibition of HDAC7.

Turning to `Nc1ccccc1NC(=O)c1ccc(CNc2nccc(-c3ccn[nH]3)n2)cc1`, in data set [1], the solubility was 77 µg/mL (≈ 200 µM). The values for the T/C in data set [2] and in data set [3] were 43% and 34%, respectively. Further, the concentration for half-maximal inhibition (IC50) in data set [4] is 24 µM; in data set [5], more than 20 µM.

The solubility is how much of the substance goes into solution per volume. As a reminder, the T/C is the result in the treated group divided by that in the control group, in per cent. The IC50 is the point on the concentration scale where inhibition reaches its midpoint. Low readings indicate inhibition by little substance, high ones a need for much substance.
